# Laboratory results published in US11986540B2, “Compositions including pafolacianine for the identification of malignant lesions” (ON TARGET LABORATORIES, LLC., priority 2022, dated 2024).
# What was measured:
# [1] = system: FR-positive KB cell tumor xenografts; experiment: Whole body imaging and tissue distribution, FR-positive KB tumor xenografts; type: in vivo, mice; conditions: compared with pafolacianine
# Procedure: Whole body imaging and tissue distribution of pafolacianine and OTL0039 was performed in female nu/nu mice bearing FR-positive KB cell tumor xenografts. […] This observation was consistent with the lower binding affinity of the D-isomer for FR compared with the L-isomer. Tumor fluorescence was brighter in mice receiving pafolacianine compared with other folate-conjugated near infrared dyes such as LS288, IR800 and ZW800.
# The optimal dose range for pafolacianine with respect to tumor-to-background ratio in FR-positive tumor-bearing mice was 1 to 30 nmol/mouse, with lower fluorescence intensity observed in tumors at a lower dose (0.3 nmol) and higher fluorescence intensity observed in other tissues at doses above 30 nmol. In a second experiment, pafolacianine whole body imaging and tissue distribution was examined again; however, this experiment was performed in female nu/nu mice bearing FR-negative A549 cell tumor xenografts.
# [2] = Excretion after single IV infusion of radiolabeled pafolacianine sodium; type: in vivo; conditions: after approximately 3-5 weeks
# [3] = system: cytochrome P450 (CYP) enzymes; experiment: Metabolism by CYP enzymes; type: in vitro ADME
SMILES,fluorescence signal intensity in tumors and kidneys [1],dose recovered in feces [2] [%],dose recovered in urine [2] [%],dose recovered in urine and feces [2],metabolism by cytochrome P450 (CYP) enzymes [3]
"CC1(C)C(=CC=C2CCCC(C=CC3=[N+](CCCCS(=O)(=O)[O-])c4ccc(S(=O)(=O)O)cc4C3(C)C)=C2Oc2ccc(C[C@@H](NC(=O)c3ccc(NCc4cnc5nc(N)[nH]c(=O)c5n4)cc3)C(=O)O)cc2)N(CCCCS(=O)(=O)O)c2ccc(S(=O)(=O)O)cc21 [OTL0039, reference compound]",weaker fluorescence signal intensity than pafolacianine,–,–,–,–
"CC1(C)C(/C=C/C2=C(Oc3ccc(C[C@H](NC(=O)c4ccc(NCc5cnc6nc(N)[nH]c(=O)c6n5)cc4)C(=O)[O-])cc3)C(=C/C=C3/N(CCCCS(=O)(=O)[O-])c4ccc(S(=O)(=O)[O-])cc4C3(C)C)/CCC2)=[N+](CCCCS(=O)(=O)[O-])c2ccc(S(=O)(=O)[O-])cc21.O.[Na+].[Na+].[Na+].[Na+] [pafolacianine sodium, (S)-2-(4-(((2-amino-4-oxo-3,4-dihydropteridin-6-yl)methyl)amino)benzamido)-3-(4-(((E)-2-((E)-2-(3,3-dimethyl-5-sulfonato-1-(4-sulfonatobutyl)-3H-indol-1-ium-2-yl)vinyl)-6-((E)-2-(3,3-dimethyl-5-sulfonato-1-(4-sulfonatobutyl)indolin-2-ylidene)ethylidene)cyclohex-1-en-1-1)oxy)phenyl)propanoate hydrate tetrasodium]",–,15.8,19.1,approximately 35%,not metabolized
